Data on 1 molecule can be found in patent US5283243A, “Piperidinoalkylbenzoxazine and piperidinoalkylbenzothiazine compounds, and medicaments containing them” (Kali-Chemie Pharma GmbH, priority 1990, dated 1994).

One data set has as its system mice. As to the kind of experiment: Determination of minimum toxic dose. It counts as in vivo. Particulars: mouse, in vivo, 300 mg/kg, 1440 min. How it is done: 2. Determination of Minimum Toxic Dose
Maximum doses of 300 mg/kg of the test substance were administered orally to male mice weighing 20-25 g. The animals were observed carefully for 3 hours for toxicity symptoms. In addition, all symptoms and deaths were recorded over a period of 24 hours after administration. Associated symptoms were also observed and recorded. If death or severe toxic symptoms were observed, additional mice were administered increasingly lower doses. The lowest dose which produced death or severe toxic symptoms is given in the following Table B as the minimum toxic dose.

A further data set deals with T1, histamine-(H1)-receptor (Cavia porcellus, UniProt P31389).
T1 construct: Segments of the ileum 1.5 cm long from Dunkin Hartley guinea pigs; from tissue; host or cells: isolated ileum segments of Dunkin Hartley guinea pigs
The experiment in a line: Anti-histamine-(H1) effect, inhibition of histamine-induced contraction of isolated guinea pig ileum in vitro. Format: cell-based, Dunkin Hartley guinea pigs. The conditions noted are these: histamine 5 × 10^-6 mole/l, test substance 10^-6 mole/l. The procedure:
3. Investigation of Anti-Histamine-(H1) Effect Based on Histamine-(H1)-Receptor Antagonism In Vitro
To investigate the histamine-(H1)-receptor antagonism of the test substances, the inhibiting effect of the substances on histamine-induced contractions of the smooth muscle was determined in vitro on the isolated organ. Isolated strips of organ from the ileum are suitable for this purpose. In an organ bath of physiological saline solution the smooth muscle strips react to the addition of histamine by contracting. […] The extent of regression of the contraction is an indication of the anti-histamine-(H1) activity of the compounds. The investigation was carried out analogously to the method originally described by Magnus (Pfluegers Arch. 102, 123 (1904)). Procedure for determining the smooth muscle contraction inhibiting effect on isolated guinea pig ileum induced by a 5×10^-6 molar histamine concentration.
Segments of the ileum 1.5 cm long from Dunkin Hartley guinea pigs having a body weight of 300 500 g were used for the test. Each strip was placed in an organ bath of 10 ml of physiological saline solution according to Krebs-Henseleit and attached to a conventional apparatus for isotonic measurement of changes in length of the ileum strips (automated Celaster measuring apparatus), so that the tissue was under 1 g of tension. The bath was kept at a pH of 7.4 and gassed with a mixture of 5% CO2 and 95% 02. After an equilibration phase, an isotonic contraction of the tissue was induced by adding histamine in a final concentration of 5×10^-6 mole/liter and washing it out again after a contact time of 30 seconds. Only tissues samples from which three reproducible contractions were obtained at 10 minute intervals were used in the subsequent test. The test substances were then added in a final concentration of 10^-6 mole/liter, and after 30 seconds contact time histamine was again added up to a concentration of 5×10^-6 mole/liter. The resulting contractions were measured over 30 seconds. The tissue was then washed several times over a period of 10 minutes. Histamine was then added again to stimulate a contraction. The resulting contractions were again measured over 30 seconds. The difference between the amplitude of the contraction obtained by histamine addition alone and the amplitude of the contraction obtained in the presence of the test substance was determined and expressed in terms of % inhibition.
The inhibiting effects on the contractions induced by histamine 30 seconds after administration of the test substance and on the contractions induced by the addition of histamine 10 minutes later are listed in the table.

Data set [1] relates to 5-lipoxygenase (LTC4 release). The experiment in a line: 5-Lipoxygenase inhibition: LTC4 release from zymosan-stimulated mouse peritoneal macrophage cells. Format: cell-based. Particulars: Peritoneal macrophage cell; zymosan-stimulated mouse peritoneal macrophage cells, 10^-5 mole/l; read-out: In vitro % inhibition upon release of LTC4. From the text: 5. In vitro Determination of Cyclooxygenase Inhibition and 5-Lipoxygenase Inhibition
After a cell is activated, arachidonic acid contained in cell membranes is metabolized in two ways. Leucotrienes, inter alia leucotriene C4, are formed due to the action of the enzyme 5-lipoxyqenase (=5-LO), and prostanoids are formed due to the action of the enzyme cyclooxygenase (=CO). In in vitro systems these metabolites are secreted from the cell.
To evaluate the cyclooxygenase-inhibiting and 5-lipoxygenase-inhibiting properties of the test substances, their inhibitory activity on the biosynthesis of the arachidonic acid derivatives leucotriene C4 (=LTC4) and 6-keto-prostaglandin F1α (=6-keto-PGF1 α) was determined in vitro on mouse peritoneal macrophage cells. For this purpose the LTC4 and 6-keto-PGF1 α contents of a mouse peritoneal macrophage cell culture medium were determined by zymosan stimulation as described by Scott et al. (J. Exp. Med. 152 (1980), 324-335) and by Fradin et al., (Prostaglandins, 33 (1987), 579-589).
A cell suspension containing peritoneal cells from male mice 8-10 weeks old was obtained in a known manner. A solution marketed under the designation RPMI 1640 (Manufactured by Gibco) was used as the cell culture medium, to which heparin (10 international units/ml) and antibiotics were added according to the procedure of Bonney et al. (Biochem. J. 176 (1978) 422-433). The cell suspension was adjusted to a cell concentration of 10^6 cells per ml and distributed uniformly on titer dishes containing 24 1-ml titer cells (wells). These were kept for two hours in a humidified incubator filled with air enriched with 7% CO2. Cells not adhering to the titer well walls were then removed by washing. The remaining macrophage cells adhering to the walls were incubated for about 12 hours in a suspension medium to which 0.1% of bovine serum albumin (BSA=Bovine Serum Albumin) was added. The suspension medium was then replaced by a Hanks salt solution (=Hanks Balanced Salt Solution=HBSS) with 10 mmoles of Hepes (=hydroxyethylpiperazinoethanesulfonic acid) to which a 0.1% strength solution of the test substances in aqueous, 1% strength dimethylformamide or only the solvent had been added. After 15 minutes the arachidonic acid metabolism was stimulated by adding […] of zymosan (=glycoprotein mixture isolated from cell walls of beer yeast, Saccharomyces cerevisiae, Manufactured by Sigma Chemical Co., Munich) per titre cell. After 2 hours samples of the respective supernatant liquid in each cell were examined for their 6-keto-PGF1α and LTC4 contents by an enzyme immunoassay (=EIA). This EIA is carried out following the method of Pradelles et al. (Analytical Chem. 57 (1985), 1170-1173). The determination of LTC4 and the determination of 6-keto-PGF1α were each carried out on suitable dilutions of the samples (1:50 to 1:250 for the LTC4 determination and 1:250 to 1:1,250 for the 6-keto-PGF1α determination) in comparison with a comparative scale. To determine the inhibiting effect of a 10^-5 molar concentration of the compounds, the amounts of reference eicosanoid were determined, and the inhibiting effect was calculated therefrom in % inhibition compared to the measurements of the zymosan controls.

T1 sequence (P31389 whole entry): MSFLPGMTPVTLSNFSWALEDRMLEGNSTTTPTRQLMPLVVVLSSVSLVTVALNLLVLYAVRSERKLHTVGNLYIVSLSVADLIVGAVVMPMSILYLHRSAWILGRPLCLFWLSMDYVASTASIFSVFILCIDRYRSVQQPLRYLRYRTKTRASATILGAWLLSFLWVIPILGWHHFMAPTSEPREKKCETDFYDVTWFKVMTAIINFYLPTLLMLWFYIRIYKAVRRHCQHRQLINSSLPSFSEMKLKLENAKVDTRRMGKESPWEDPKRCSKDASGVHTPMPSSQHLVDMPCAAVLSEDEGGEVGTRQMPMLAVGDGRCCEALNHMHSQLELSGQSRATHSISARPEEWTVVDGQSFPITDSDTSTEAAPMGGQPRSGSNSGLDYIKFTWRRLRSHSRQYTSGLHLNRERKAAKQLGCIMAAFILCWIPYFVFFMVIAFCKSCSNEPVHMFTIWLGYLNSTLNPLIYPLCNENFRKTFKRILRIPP

The molecule `O=C1Nc2ccccc2SC1CCCN1CCC(Nc2nc3ccccc3n2Cc2ccc(F)cc2)CC1` (stereo not shown) [Example 8] had a Minimum toxic dose with mice of 300 mg/kg. Further, the “in vitro (H1)-receptor antagonism, % inhibition of histamine-induced ileum contractions after 30 seconds” value on histamine-(H1)-receptor (after 30 seconds) stood at 5%. On histamine-(H1)-receptor (after 10 minutes), the “in vitro (H1)-receptor antagonism, % inhibition of histamine-induced ileum contractions after 10 minutes” value worked out at 44%. The inhibition at 10 µM in data set [1] stood at 40%.

As usually defined, the inhibition is the change of the read-out against control, counted positive when it falls.
